Source: publication PMC9658216, “Topical Administration of a Novel Acetylated Tetrapeptide Suppresses Vascular Permeability and Immune Responses and Alleviates Atopic Dermatitis in a Murine Model” (International Journal of Molecular Sciences, 2022)

Legend:
NC/Nga mice [1] = test: Dermatitis severity score in HDM (Biostir-AD)-induced AD-like skin lesions; assay type: in vivo; conditions: topical 100 μL/mouse daily for 4 weeks, Day 48, mean ± SD, n = 10
Method: (§1) To induce experimental AD-like skin lesions in mouse, we used cutaneous Biostir-AD for challenging NC/Nga mice, according to the manufacturer’s instructions. After 1 week of acclimation, AD was induced. Briefly, the dorsal part of each mouse was shaved with an electric shaver, and then the remaining hair was removed using a depilatory cream. Twice weekly for three weeks, growing hair was shaved with the electric shaver, followed by application of 150 μL of 4% sodium dodecyl sulfate to the treated area (barrier disruption). Biostir-AD (200 mg/mouse) was applied 3 h after barrier disruption. Fifty mice were divided into five groups of five mice per cage (n = 10 per group): group 1, control (Biostir-AD + vehicle (distilled water only)); group 2, 0.1% tacrolimus (Biostir-AD + Protopic (positive control)); group 3, 0.004% Ac-RLYE (Biostir-AD + 0.004% Ac-RLYE in distilled water); group 4, 0.02% Ac-RLYE (Biostir-AD + 0.02% Ac-RLYE in distilled water); and group 5, 0.1% Ac-RLYE (Biostir-AD + 0.1% Ac-RLYE in distilled water). Ac-RLYE or 0.1% tacrolimus (100 μL/mouse) was applied daily for 4 weeks. The concentration of Ac-RLYE used in the present study was determined based on the results of previous preliminary experiments (unpublished data). The mice were sacrificed after 4 weeks of Ac-RLYE treatment (Figure 2A, on Day 48). The severity of the dermatitis was measured macroscopically and scored once a week by using a previously established method based on the clinical signs and symptoms of AD, namely, erythema (hemorrhage), edema, excoriation (erosion), and scaling (dryness). The total dermatitis severity score was defined as the sum of the component scores (0, no symptoms; 1, mild; 2, moderate; 3, severe) for each mouse, ranging from 0 to 12.

filaggrin (FLG) = test: Skin filaggrin (FLG) ELISA; assay type: in vivo, mouse; conditions: n = 10; for FLG level in dorsal skin: mean ± SD
Method: as §1, with “dorsal skin was collected from mice after 4 weeks” for “severity”, “Ac-RLYE or tacrolimus treatment and stored at −80 °C until use. The dorsal skin tissues were homogenized in RIPA lysis buffer containing a protease inhibitor and a phosphatase inhibitor and centrifuged at 13,000 rpm for 10 min at 4 °C. The supernatant” for “the dermatitis”, “collected for” for “measured macroscopically and scored once”, “protein assay” for “week by”, “Pierce™ BCA Protein Assay Kit (Thermo Fisher Scientific, Inc., Waltham, MA, USA). The level of FLG in mouse skin tissue was quantified using an ELISA kit (MyBioSource, Inc., San Diego, CA, USA) in accordance with” for “previously established method based on”, “manufacturer’s instructions.” for “clinical signs and symptoms of AD, namely, erythema (hemorrhage), edema, excoriation (erosion), and scaling (dryness). The total dermatitis severity score was defined as the sum of the component scores (0, no symptoms; 1, mild; 2, moderate; 3, severe) for each mouse, ranging from 0 to 12.”

HUVECs = test: Immunofluorescence of ZO-1 and VE-cadherin junctions in VEGF-A-stimulated HUVECs; assay type: cell-based, human; conditions: HUVECs pre-treated 30 min with 0.15 nM Ac-RLYE, then 10 ng/mL VEGF-A for 1 h; confocal immunofluorescence, Image J; n = 3
Method: Figure 1 Ac-RLYE inhibits VEGF-A-induced junctional integrity loss in HUVECs. Cells were pre-treated for 30 min with Ac-RLYE (0.15 nM) followed by stimulation with 10 ng/mL VEGF-A (V) for 1 h. (A) Confocal images of ZO-1 and VE-cadherin. (B) Quantification of ZO-1 and VE-cadherin at contact sites between endothelial cells (n = 3). Data are represented as mean ± SD values. *** p < 0.001.
Collagenase type II (Worthington Biochemical Corporation, Lakewood, NJ) was used to isolate human umbilical vein endothelial cells (HUVECs) from umbilical cord veins. The cells were cultured on gelatin-coated plates in Medium 199 supplemented with 20% FBS, 100 U/mL penicillin–streptomycin, 3 ng/mL bFGF, and 5 U/mL heparin. Trypsinization was used to collect the cells (up to passage 7), which were then used for assays.
HUVECs were grown as a monolayer on 2% gelatin-coated cover glasses and cultured in M199 medium containing 1% FBS. The cells were pretreated with 0.15 nM Ac-RLYE for 30 min and stimulated with 10 ng/mL VEGF-A for 1 h. […] The levels of VE-cadherin and ZO-1 were quantified using Image J software.

NC/Nga mice [2] = test: Ear thickness in HDM-induced AD model; assay type: in vivo, mouse; conditions: n = 10
Method: as §1, with “The mice were sacrificed after 4 weeks of Ac-RLYE treatment (Figure 2A, on Day 48). The severity of the dermatitis was measured macroscopically and scored once a week by using a previously established method based on the clinical signs and symptoms of AD, namely, erythema (hemorrhage), edema, excoriation (erosion), and scaling (dryness). The total dermatitis severity score was defined as the sum of the component scores (0, no symptoms; 1, mild; 2, moderate; 3, severe) for each mouse, ranging from 0 to 12.” left out
Ear thickness was measured on the first day of Ac-RLYE application and then once a week using calipers.

NC/Nga mice [3] = test: Histological analysis (H&E) of AD-like skin lesions; assay type: in vivo, mouse; conditions: n = 10
Method: (§2) To induce experimental AD-like skin lesions in mouse, we used cutaneous Biostir-AD for challenging NC/Nga mice, according to the manufacturer’s instructions. After 1 week of acclimation, AD was induced. Briefly, the dorsal part of each mouse was shaved with an electric shaver, and then the remaining hair was removed using a depilatory cream. Twice weekly for three weeks, growing hair was shaved with the electric shaver, followed by application of 150 μL of 4% sodium dodecyl sulfate to the treated area (barrier disruption). Biostir-AD (200 mg/mouse) was applied 3 h after barrier disruption. […] The concentration of Ac-RLYE used in the present study was determined based on the results of previous preliminary experiments (unpublished data). […]
(§3) The dorsal skin tissues were isolated, fixed in 10% formalin immediately after excision from the mice, and embedded in paraffin. […] Skin samples were observed and measured with an Olympus BX53 light microscope (Olympus Corporation, Tokyo, Japan). From the histopathological findings, the severity of skin manifestations was assessed on the epidermis (hypertrophy, hyperkeratosis, and infiltration by inflammatory cells) and on the dermis (infiltration by inflammatory cells) and was expressed as the sum of the individual score grades from 0 to 3 (0, no symptoms; 1, mild; 2, moderate; 3, severe), as described previously. […]

NC/Nga mice [4] = test: Differential cell counting of blood; assay type: in vivo, mouse; conditions: differential counting at Day 48; versus vehicle-treated control; n = 10
Method: as §1, with “48).” for “48). The severity of the dermatitis was measured macroscopically and scored once a week by using a previously established method based on the clinical signs and symptoms of AD, namely, erythema (hemorrhage), edema, excoriation (erosion), and scaling (dryness). The total dermatitis severity score was defined as the sum of the component scores (0, no symptoms; 1, mild; 2, moderate; 3, severe) for each mouse, ranging from 0 to 12.”
Whole blood samples were collected from the mice and used for analysis. […]

NC/Nga mice [5] = test: Mast cell infiltration (toluidine blue staining); assay type: in vivo, mouse; conditions: Day 48, versus vehicle-treated group, n = 10
Method: as §2, §3

IgE = test: Plasma IgE ELISA; assay type: in vivo, mouse; conditions: Day 48, topical application, versus vehicle-treated group, n = 10
Method: as §2
The blood samples were drawn from mice, and the plasma was separated by centrifugation at 10,000× g for 10 min at 4 °C and stored at −80 °C until tested. The plasma level of IgE was measured by ELISA according to the manufacturer’s instructions (Mouse IgE ELISA Kit, Abcam, Cambridge, UK).

[6] = tested on: Th1, Th2 and Th17 cytokines; test: qRT-PCR of cytokine mRNA in AD-like skin lesions; assay type: in vivo, mouse; conditions: skin at Day 48, normalized to GAPDH, versus vehicle, n = 10
Method: as §1, with “48).” for “48). The severity of the dermatitis was measured macroscopically and scored once a week by using a previously established method based on the clinical signs and symptoms of AD, namely, erythema (hemorrhage), edema, excoriation (erosion), and scaling (dryness). The total dermatitis severity score was defined as the sum of the component scores (0, no symptoms; 1, mild; 2, moderate; 3, severe) for each mouse, ranging from 0 to 12.”
Both the ear and dorsal skin of each mouse were excised using a surgical knife, pooled, and used for RNA isolation. Total RNA was prepared using an RNA isolation kit (GeneAll® Hybrid-R™, GeneAll, Korea) following the manufacturer’s instructions. RNA was quantified using a BioTek Take3^TM Multi-Volume plate (Agilent BioTek Instruments, Winooski, VT, USA). An equal amount of total RNA was reverse-transcribed using ReverTra Ace™ qPCR RT Master Mix with gDNA Remover (Toyobo CO., LTD., Osaka, Japan) according to the manufacturer’s instructions. Real time-PCR was performed on a CFX96™ Touch Real-Time PCR System (Bio-Rad, Hercules, CA) using TB Green® Premix Ex Taq™ (Takara, Shiga, Japan). Quantification of the target gene expression was determined by the comparative […] method. The relative expression levels were determined by normalizing expression to glyceraldehyde 3-phosphate dehydrogenase (GAPDH). The level of each target gene was expressed as the relative fold change.

| Compound | Dermatitis score (sum of erythema, edema, excoriation, scaling; 0-12) (NC/Nga mice [1]; 0.1% tacrolimus ointment (Protopic)) | FLG level in dorsal skin (filaggrin (FLG); 0.1% tacrolimus ointment topical daily for 4 weeks) | VEGF-induced cellular junction disruption (ZO-1 and VE-cadherin at cell-cell contact sites) (HUVECs) | Dermatitis score (sum of erythema, edema, excoriation, scaling; 0-12) (NC/Nga mice [1]; 0.004% in distilled water) | Dermatitis score (sum of erythema, edema, excoriation, scaling; 0-12) (NC/Nga mice [1]; 0.02% in distilled water) | Dermatitis score (sum of erythema, edema, excoriation, scaling; 0-12) (NC/Nga mice [1]; 0.1% in distilled water) | Effect on ear thickness compared with tacrolimus (NC/Nga mice [2]; doses above 0.02%, Day 48) | Increase in ear thickness after HDM (NC/Nga mice [2]; topical 0.004-0.1% once daily for 4 weeks, dose-dependent, versus vehicle) | Infiltration of inflammatory cells in epidermis and dermis (NC/Nga mice [3]; Day 48, all Ac-RLYE-treated groups versus vehicle-treated HDM group) | Scores of hypertrophy and hyperkeratosis in epidermis (NC/Nga mice [3]; Day 48, versus vehicle-treated HDM group) | Number of leukocytes, neutrophils and eosinophils in blood (NC/Nga mice [4]) | Accumulation of mast cells in AD-like skin lesion (NC/Nga mice [5]) | Plasma IgE (IgE) | FLG level in dorsal skin (filaggrin (FLG); 0.1% Ac-RLYE topical daily for 4 weeks) | Protein level of FLG versus vehicle-treated AD group (filaggrin (FLG); Ac-RLYE groups 0.004-0.1%, dose-dependent) | Expression of IFN-γ [6] | Expression of IL-17A (Th17 cytokine) [6] | Expression of Th1 cytokines IL-23 and TNF-α [6] | mRNA levels of Th2-type cytokines IL-4, IL-13, IL-31 and Th2 chemokine CCL17 [6] |
| --- | --- | --- | --- | --- | --- | --- | --- | --- | --- | --- | --- | --- | --- | --- | --- | --- | --- | --- | --- |
| C=CC[C@@H]1/C=C(\C)C[C@H](C)C[C@H](OC)[C@H]2O[C@@](O)(C(=O)C(=O)N3CCCC[C@H]3C(=O)O[C@H](/C(C)=C/[C@@H]3CC[C@@H](O)[C@H](OC)C3)[C@H](C)[C@@H](O)CC1=O)[C@H](C)C[C@@H]2OC [tacrolimus, reference compound] | 4.5 ± 2.4 | 1444.8 ± 110.5 pg/mL | – | – | – | – | – | – | – | – | – | – | – | – | – | – | – | – | – |
| N-acetyl-Arg-Leu-Tyr-Glu [Ac-RLYE] | – | – | significantly attenuated | 7.4 ± 0.8 | 5.8 ± 2.3 | 4.5 ± 2.4 | slightly better than that of tacrolimus | significantly attenuated | less infiltration | decreased | dose-dependently lowered | reduced | significantly lowered | 1469.4 ± 105.2 pg/mL | significantly restored | increased | suppressed | inhibited | remarkably inhibited |
